# Data reported in PMC8877822, “Interrogation of the Structure–Activity Relationship of a Lipophilic Nitroaromatic Prodrug Series Designed for Cancer Gene Therapy Applications” (Pharmaceuticals, 2022).
# Read-outs that look alike come from different tables or passages of the source.
# What was measured:
# [1] = test system: mixed H1299 xenograft containing 28% NfsA_Ec cells and 72% WT cells; test: Tumor growth delay assay, mixed H1299 xenograft; type: in vivo, mice; settings: for Survival time compared to PR-104 treated tumors: single i.p. dose: 1-P 1330 µmol/kg
# Method: These ratios were broadly similar to those observed in HCT116 cells (Figure 2). A mixed H1299 xenograft model containing a minority percentage (28 ± 3.3%) of NfsA_Ec-expressing cells was used in order to rank the efficacy of the prodrugs in vivo. A model such as this necessitates the presence of a robust bystander effect to achieve a tumor growth delay. Tumor-bearing mice were administered a single intraperitoneal dose of prodrugs 1-P, 2-P, and 6-P at the H1299 tumor-bearing MTD. PR-104 was administered at 388 µmol/kg, the human equivalent dose (HED) in mice that provides a plasma AUCfree of PR-104A (38 µM-h) that equates to the human Q3W MTD of 1100 mg/m^2 [22].
# (§1) An estimated starting dose was determined from related compounds. Animals were promptly euthanized if body weight loss exceeded 20% or if there were clinical signs of severe morbidity. The MTD was defined as the highest dose, at which all animals survived (death rate < 1/6) with no unacceptable morbidity, and where the next dose increment had caused at least one death. Tumors were inoculated onto the flanks of NIH-III nude mice by subcutaneous injection of 10^7 H1299 cells. Tumor-bearing mice were randomized to treatment groups (n = 5 mice per group) when tumors reached treatment size (300–350 mm^3) and injected with a single intraperitoneal dose of pre-prodrug. Tumor size and body weights were measured regularly. Tumor volume was calculated as π(Lxw^2)/6, where L is the major axis and w is the perpendicular minor axis. Animals were euthanized when the tumor volume had increased fourfold relative to pre-treatment volume (RTV4, survival endpoint) or if body weight loss exceeded 20% of the pre-treatment value. Kaplan–Meier plots were constructed, and median time to endpoint was calculated. Treatment efficacy was assessed by comparing the median survival time with untreated animals using the Log-rank test p-test (Sigmaplot version 11.0).
# Figure 5 In vivo efficacy of the three lead pre-prodrug compounds in a mixed H1299 xenograft containing 28% NfsA_Ec cells and 72% WT cells. (A) Tumor growth and (B) survival analysis of mice bearing 250 mm^3 H1299 tumors treated with a single intraperitoneal dose of prodrug on day 0. N = 5 animals per group. Control = PBS, PR-104 = 388 µmol/kg; 1-P = 1330 μmol/kg; 2-P = 750 μmol/kg; and 6-P = 1330 μmol/kg. Survival endpoint was 4× start volume (RTV4).
# in vivo = type: in vivo, mice; settings: for MTD: NIH-III nude, mouse, in vivo, ip, i.p., read-out: Maximum tolerated dose (MTD)
# From the text: NfsA_Ec potency and bystander effect from the diffusion of activated metabolites is only one determinant of the therapeutic utility of a GDEPT prodrug. Overall, anti-tumor activity will also depend on the efficiency of metabolic activation at well-tolerated prodrug doses, determined mainly by the relationship between host toxicity and plasma/tumor pharmacokinetics. Like PR-104A, the three lead prodrugs (1, 2, and 6) contain an alcohol side chain that requires addition of a phosphate ester to increase water solubility for in vivo applications. […] Employing identical methods, we determined the MTD of compounds 2-P and 6-P to be 1000 µmol/kg and 1330 µmol/kg, respectively (data summary in Table S1). In preparation for efficacy testing against H1299 xenografts, we next determined the MTD of each compound (1-P, 2-P, and 6-P) in H1299 tumor-bearing mice to be 1330 µmol/kg, 750 µmol/kg, and 1330 µmol/kg, respectively (Table S1). In each case 1-P, 2-P, and 6-P administration (i.p.) was well tolerated, with no evidence of morbidity or mortality, accompanied by a minimal body weight loss (BWL) nadir of −2.2%, −4.0%, and −5.3%, respectively (MTD defined as <−15% average BWL).
# as §1
# Supplementary Table S1. Summary of maximum tolerated dose of test compounds
# Footnotes: BWL nadir % = body weight loss percentage (time independent nadir). HEP = humane endpoint. * =
# Non-tumour bearing H1299 tumour bearing
# [2] = non-tumour bearing, cited from earlier work
# [3] = LogD7.4 by low-volume octanol/PBS shake-flask method; type: physicochemical; settings: n-octanol/PBS; octanol-water partition coefficient, shake-flask method at pH 7.4
# Method: Distribution ratios (LogD7.4) were determined by a low-volume octanol/PBS shake-flask method. Briefly, saturated solutions of octanol and PBS were prepared by mixing equal volumes of n-octanol and PBS (pH 7.4) before being left for three days. The octanol and PBS phases were then carefully separated and left to stand for at least 24 h. Stock solutions (0.1–0.5 mM) of each compound were prepared in octanol saturated with PBS. The stock solutions were diluted with octanol saturated with PBS containing and inter-assay control (acridone) to a final compound concentration of 50 μM. Aliquots (450 μL) were then taken in triplicate, and 450 μL of PBS saturated with octanol was added into amber tubes. The tubes were then sealed in parafilm and rotated for 90 min at 30 rpm to equilibrate. After centrifugation (15,000× g, 5 min, 20°C) the octanol and PBS phases were separated into different tubes and the octanol phase diluted with methanol (1:5 v/v). Both phases were analyzed by HPLC (diode-array detector at 364 ± 10 nm) by injecting 50 μL of the PBS phase and 15 μL of the diluted octanol phase. The results were then expressed as the log ratio of the peak areas obtained from the octanol and PBS phases corrected for dilution and injection volume.
# SiHa xenografts = test: Tumor excision assay, clonogenic cell kill of SiHa xenografts; type: in vivo, mice; settings: 18 h after treatment, PR-104 380 µmol/kg i.p., 6-P 1330 µmol/kg i.p.
# Method: The sensitivity of four cancer cell lines to prodrug 6 was determined under aerobic or anoxic conditions using an anti-proliferative IC50 assay. […] We also evaluated the hypoxic activity of 6-P versus PR-104 in vivo using a SiHa xenograft model (Figure 6B).
# When tumors reached treatment size (>400 mm^3), mice were treated with drug by a single intraperitoneal injection of pre-prodrug or vehicle. Mice treated with ionizing radiation were exposed to 10 Gray prior to drug treatment, using a cobalt-60 source from an Eldorado G unit. Animals were euthanized 18 h after drug treatment, and tumors were excised and homogenized using sterile scissors until a fine mince was obtained. Following enzymatic dissociation (2.5 mg/mL pronase, 1 mg/mL collagenase, and 0.2 mg/mL DNAase in αMEM + 10% FBS + 1% P/S, 1 mL per 50 mg), cells were plated at concentrations of 10^2–10^5 cells per 60 mm dish and grown for 10 days before colonies were stained with methylene blue (2 g/L in 50% aqueous alcohol). Colonies containing >50 cells were counted as clonogenic survivors. From these values, plating efficiency (colonies/cells plated), number of clonogens per gram of tumor tissue (plating efficiency × total cells), and log cell kill relative to vehicle treated controls (log clonogens per gram) were calculated. Statistical analysis was undertaken using Holm–Sidak’s one-way ANOVA (Sigmaplot version 11.0).
# (A) In vitro anti-proliferative activity of 6 in various cancer cell lines under aerobic and anoxic conditions. IC50 values were determined as the concentration of drug required to inhibit cell growth by 50% of untreated controls following 4 h drug exposure and five days regrowth (mean ±SEM of three or more independent determinations). (B) Clonogenic cell kill of SiHa xenografts 18 h after treatment with hypoxia activated prodrugs PR-104 (380 µmol/kg, i.p.) or 6-P (1330 µmol/kg, i.p.) with or without 10 Gy radiation.
# [4] = H1299 tumour bearing, dose 750 µmol/kg
# [5] = H1299 tumour bearing, dose 1000 µmol/kg
# [6] = non-tumour bearing, dose 1000 µmol/kg
# [7] = non-tumour bearing, dose 1330 µmol/kg
# [8] = H1299 tumour bearing, dose 1330 µmol/kg
# [9] = H1299 tumour bearing, dose 1780 µmol/kg
# [10] = non-tumour bearing, dose 1780 µmol/kg
compound,measurement,setting,value
CCCS(=O)(=O)c1cc([N+](=O)[O-])c(C(=O)NCCO)cc1N(CCBr)CCBr [Compound 8],melting point,,128 to 129 °C
"CN(CCOP(=O)(O)O)C(=O)c1cc(N(CCBr)CCBr)c(S(C)(=O)=O)cc1[N+](=O)[O-] [Compound 2-P, 2-(5-(Bis(2-bromoethyl)amino)-N-methyl-4-(methylsulfonyl)-2-nitrobenzamido)ethyl dihydrogen phosphate]",Survival time compared to PR-104 treated tumors,[1]; 2-P 750 µmol/kg,did not produce an improvement in survival time
same,BWL nadir,in vivo; [4],-4.0%
same,Deaths,in vivo; [4],0
same,HEP (humane endpoint),in vivo; [4],0
same,MTD (Yes/above),in vivo; [4],Yes
same,BWL nadir,in vivo; [5],-8.7%
same,Deaths,in vivo; [5],2
same,HEP (humane endpoint),in vivo; [5],0
same,MTD (Yes/above),in vivo; [5],above
same,MTD,in vivo; H1299 tumor-bearing mice,750 µmol/kg
same,MTD,"in vivo; nude mice, non-tumour bearing",1000 µmol/kg
same,BWL nadir,in vivo; [6],-2.5%
same,Deaths,in vivo; [6],0
same,HEP (humane endpoint),in vivo; [6],0
same,MTD (Yes/above),in vivo; [6],Yes
same,BWL nadir,in vivo; [7],-10.5%
same,Deaths,in vivo; [7],1
same,HEP (humane endpoint),in vivo; [7],1
same,MTD (Yes/above),in vivo; [7],above
CS(=O)(=O)c1cc([N+](=O)[O-])c(C(=O)NCCOP(=O)(O)O)cc1N(CCBr)CCBr [Compound 1-P],BWL nadir,[2]; dose 1780 µmol/kg,-2.8%
same,Deaths,[2]; dose 1780 µmol/kg,0
same,HEP (humane endpoint),[2]; dose 1780 µmol/kg,0
same,MTD (Yes/above),[2]; dose 1780 µmol/kg,Yes
same,BWL nadir,[2]; dose 2370 µmol/kg,-6.9%
same,Deaths,[2]; dose 2370 µmol/kg,2
same,HEP (humane endpoint),[2]; dose 2370 µmol/kg,0
same,MTD (Yes/above),[2]; dose 2370 µmol/kg,above
same,Maximum tolerated dose (MTD),"[2]; nude mice, i.p.",1780 µmol/kg
same,Survival time compared to PR-104 treated tumors,[1]; 2-P 750 µmol/kg,did not produce an improvement in survival time
same,BWL nadir,in vivo; [8],-2.2%
same,Deaths,in vivo; [8],0
same,HEP (humane endpoint),in vivo; [8],0
same,MTD (Yes/above),in vivo; [8],Yes
same,BWL nadir,in vivo; [9],-7.6%
same,Deaths,in vivo; [9],1
same,HEP (humane endpoint),in vivo; [9],1
same,MTD (Yes/above),in vivo; [9],above
same,MTD,in vivo; H1299 tumor-bearing mice,1330 µmol/kg
CCN(CCO)C(=O)c1cc(N(CCBr)CCBr)c(S(C)(=O)=O)cc1[N+](=O)[O-] [Compound 3],logD at 90 min,[3],1.6
"CCS(=O)(=O)c1cc([N+](=O)[O-])c(C(=O)NCCO)cc1N(CCBr)CCBr [Compound 5, 5-(Bis(2-bromoethyl)amino)-N-(2-hydroxyethyl)-4-(ethylsulfonyl)-2-nitrobenzamide]",melting point,,137 to 140 °C
same,logD at 90 min,[3],1.5
"CCS(=O)(=O)c1cc([N+](=O)[O-])c(C(=O)N(C)CCOP(=O)(O)O)cc1N(CCBr)CCBr [Compound 6-P, 2-(5-(bis(2-bromoethyl)amino)-4-(ethylsulfonyl)-N-methyl-2-nitrobenzamido)ethyl dihydrogen phosphate]","Log cell kill, in combination with radiotherapy",SiHa xenografts; 10 Gy radiation,4.05
same,"Log cell kill, single agent",SiHa xenografts,1.06
same,Tumor growth delay compared to PR-104 treated group,"[1]; single i.p. dose, 6-P 1330 µmol/kg, PR-104 388 µmol/kg",92%
same,Tumor growth delay (median time to RTV4) compared to untreated controls,"[1]; single i.p. dose: PR-104 388 µmol/kg, 1-P 1330 µmol/kg, 2-P 750 µmol/kg, 6-P 1330 µmol/kg",156%
same,BWL nadir,in vivo; [8],-5.3%
same,Deaths,in vivo; [8],0
same,HEP (humane endpoint),in vivo; [8],0
same,MTD (Yes/above),in vivo; [8],Yes
same,MTD,in vivo; H1299 tumor-bearing mice,1330 µmol/kg
same,MTD,"in vivo; nude mice, non-tumour bearing",1330 µmol/kg
same,BWL nadir,in vivo; [7],-1.8%
same,Deaths,in vivo; [7],0
same,HEP (humane endpoint),in vivo; [7],0
same,MTD (Yes/above),in vivo; [7],Yes
same,Deaths,in vivo; [10],0
same,HEP (humane endpoint),in vivo; [10],2
same,MTD (Yes/above),in vivo; [10],above
